Structures can show the parent of a compound that is named as a salt.
Tests used:
[1] = molecular target: T1, noradrenaline (NA) uptake, synaptosomes from rat hypothalamus (Rattus norvegicus, UniProt Q63380); experiment: In vitro synaptosomal uptake of [3H]-NA; type: biochemical
T1 construct: Synaptosomes for use in obtaining in vitro uptake data were prepared from hypothalamus or striatum by gently homogenizing the tissue; from tissue; host or cells: rat hypothalamus synaptosomes (1100 x g supernatant)
T1 sequence (Q63380 1-617): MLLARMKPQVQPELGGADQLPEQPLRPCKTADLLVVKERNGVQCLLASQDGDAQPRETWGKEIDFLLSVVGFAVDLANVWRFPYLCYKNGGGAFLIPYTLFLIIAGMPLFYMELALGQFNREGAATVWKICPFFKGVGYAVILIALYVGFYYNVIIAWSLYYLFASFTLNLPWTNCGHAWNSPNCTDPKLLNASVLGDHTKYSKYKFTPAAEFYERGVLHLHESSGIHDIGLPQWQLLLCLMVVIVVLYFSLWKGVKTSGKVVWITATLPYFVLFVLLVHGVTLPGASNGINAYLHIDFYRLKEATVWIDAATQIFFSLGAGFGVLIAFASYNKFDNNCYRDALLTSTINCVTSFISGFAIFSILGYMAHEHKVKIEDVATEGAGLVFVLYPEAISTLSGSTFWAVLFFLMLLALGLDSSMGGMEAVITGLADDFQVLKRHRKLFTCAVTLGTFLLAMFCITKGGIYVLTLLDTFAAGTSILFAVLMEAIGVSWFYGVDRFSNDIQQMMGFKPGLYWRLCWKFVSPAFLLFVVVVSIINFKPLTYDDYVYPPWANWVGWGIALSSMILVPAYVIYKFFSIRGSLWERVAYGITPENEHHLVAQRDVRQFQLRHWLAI
Experimental: In vitro uptake was determined, as reported previously, using synaptosomes prepared from rat caudoputamen (for dopamine uptake) and hypothalamus (for NA and serotonin uptake) using [^3H]-dopamine, [^3H]-NA and [^3H]-serotonin as transport substrates, respectively. See Eckhardt, S. B., R. A. Maxwell, and R. M. Ferris, A Structure-Activity Study of the Transport Sites for the Hypothalamic and Striatal Catecholamine Uptake Systems. Similarities and differences. Molecular Pharmacology, 21: p. 374-9,1982
Synaptosomes for use in obtaining in vitro uptake data were prepared from hypothalamus or striatum by gently homogenizing the tissue in a 0.3 M sucrose/25 mM Tris pH 7.4 buffer containing iproniazid phosphate to inhibit monoamine oxidase. The homogenate was centrifuged at 1100×g at 4° C. for 10 min and the supernatant was used for uptake studies. […] Under these conditions uptake was linear with respect to both for substrate and tissue (with <5% total substrate transported). Non-specific uptake was defined as uptake at 0° C. [^3H]-substrate, which had been transported into synaptosomes, was separated from free [^3H]-substrate by filtration over GF/B filters and washing with cold Krebs-Henseleit buffer. The filters were counted for tritum in a liquid scintillation spectrometer.

[2] = molecular target: T2, serotonin uptake, synaptosomes from rat hypothalamus (Rattus norvegicus, UniProt P31652); experiment: In vitro synaptosomal uptake of [3H]-serotonin; type: biochemical; conditions: at 30 μM
T2 construct: Synaptosomes for use in obtaining in vitro uptake data were prepared from hypothalamus or striatum by gently homogenizing the tissue; from tissue; host or cells: rat hypothalamus synaptosomes
T2 sequence (P31652 whole entry): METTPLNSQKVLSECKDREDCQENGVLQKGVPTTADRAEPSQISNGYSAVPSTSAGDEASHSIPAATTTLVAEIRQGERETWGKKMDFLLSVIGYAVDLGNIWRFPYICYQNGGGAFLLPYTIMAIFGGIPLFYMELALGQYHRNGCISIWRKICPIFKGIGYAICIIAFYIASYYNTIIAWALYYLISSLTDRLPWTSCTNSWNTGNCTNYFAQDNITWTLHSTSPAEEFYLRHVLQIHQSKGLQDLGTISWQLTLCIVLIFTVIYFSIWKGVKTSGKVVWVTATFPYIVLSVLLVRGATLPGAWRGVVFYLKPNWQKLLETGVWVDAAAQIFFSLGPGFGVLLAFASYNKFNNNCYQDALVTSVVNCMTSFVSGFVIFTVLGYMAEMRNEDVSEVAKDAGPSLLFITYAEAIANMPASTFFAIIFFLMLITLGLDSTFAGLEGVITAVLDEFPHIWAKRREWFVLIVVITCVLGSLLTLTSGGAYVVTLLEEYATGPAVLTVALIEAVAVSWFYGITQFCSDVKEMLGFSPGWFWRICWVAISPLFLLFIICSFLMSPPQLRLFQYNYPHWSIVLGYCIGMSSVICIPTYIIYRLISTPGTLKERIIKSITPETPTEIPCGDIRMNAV
From the text: Similarities and differences. Molecular Pharmacology, 21: p.

[3] = molecular target: T3, dopamine transporter (DAT) (Homo sapiens, UniProt Q01959); experiment: Dopamine transporter (DAT) receptor occupancy study, PET with 11C-βCIT-FE; type: in vivo; conditions: for DAT receptor occupancy: Part A, healthy male volunteers, PET 2.5 hours after initiation of dosing; for average DAT receptor occupancy: Part B, 60 mg modified release oral once daily for 6 days
T3 construct: from tissue; host or cells: striatum of healthy male volunteers, in vivo PET with 11C-βCIT-FE
T3 sequence (Q01959 whole entry): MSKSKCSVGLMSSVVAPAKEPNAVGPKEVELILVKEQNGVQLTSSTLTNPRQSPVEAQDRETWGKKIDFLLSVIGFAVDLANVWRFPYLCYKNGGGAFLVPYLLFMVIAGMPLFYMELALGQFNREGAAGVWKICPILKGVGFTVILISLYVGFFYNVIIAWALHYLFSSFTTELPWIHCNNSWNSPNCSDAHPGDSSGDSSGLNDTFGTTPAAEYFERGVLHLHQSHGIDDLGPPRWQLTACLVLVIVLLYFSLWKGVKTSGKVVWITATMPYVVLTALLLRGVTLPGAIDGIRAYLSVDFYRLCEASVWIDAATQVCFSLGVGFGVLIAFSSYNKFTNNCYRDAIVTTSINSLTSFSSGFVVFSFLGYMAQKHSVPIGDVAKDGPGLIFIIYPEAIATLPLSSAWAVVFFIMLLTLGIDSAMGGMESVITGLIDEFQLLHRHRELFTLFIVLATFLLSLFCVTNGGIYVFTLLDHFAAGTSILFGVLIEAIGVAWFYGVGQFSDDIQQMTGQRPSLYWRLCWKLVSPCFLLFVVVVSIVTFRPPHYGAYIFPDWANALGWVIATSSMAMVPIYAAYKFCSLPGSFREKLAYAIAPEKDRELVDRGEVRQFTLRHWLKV
Experimental: The study was conducted in two parts. Part A utilized positron emission tomography (PET) to characterize the concentration-percent occupancy relationship with respect to the dopamine transporter (DAT) after dosing with intravenous compound of formula (I) to pseudo-steady-state. Part B utilized PET to evaluate the time course of occupancy at the dopamine transporter following steady-state dosing of the compound of formula (I) via a modified release oral formulation. The tracer used in this study to assess the occupancy at the DAT was ^11C-βCIT-FE.
Part A. Six healthy male volunteers each received a 20.6 mg intravenous dose of the compound of formula (I) administered via a 2-hour loading infusion followed by a 2-hour maintenance infusion to achieve pseudo-steady-state. Each subject then received two additional doses (61.8 mg and 91.2 mg) of the compound of formula (I), with each dose separated by 3 weeks. A baseline PET scan was performed between 1 and 7 days prior to first dosing with formula (I), and then each post-dose PET scan performed 2.5 hours after the initiation of each of the three dosing regimens.
The concentrate solution for infusion was formulated to contain 10 mg free base equivalent per mL as the hydrochloride salt of the compound of formula (I), and consisted of a clear, colorless solution, pH adjusted to approximately 4.5, buffered with 50 mmol citrate buffer. The product was diluted to a total volume of 250 mL with 0.9% weight-to-volume ratio (w/v) sodium chloride injection prior to being administered.
Part B. Six healthy male volunteers received 60 mg of the compound of formula (I) via a modified release oral formulation once daily for 6 days in order to achieve steady-state by the last day. Four ^11C-βCIT-FE PET scans were performed for each subject, the first between 1 and 7 days prior to dosing and the remaining three at 6, 12 and 24 hours following the final dose on Day 6. The oral formulations were uncoated tablets, containing 20 mg and 40 mg of the compound of formula (I) as the hydrochloride salt details of the formulations are set out below as Examples 6 and 7 (prepared by an analogous method to Examples 1 to 5 above).

[4] = test system: cell-lines expressing human monoamine transporters; experiment: Compound-induced cytotoxicity in the transporter-expressing cells; type: cell-based; conditions: at any of the concentrations causing reuptake inhibition

SMILES	IC50 [1] [nM]	inhibition of serotonin uptake [2]	DAT receptor occupancy ([3]; 20.6 mg intravenous) [%]	DAT receptor occupancy ([3]; 61.8 mg intravenous) [%]	DAT receptor occupancy ([3]; 91.2 mg intravenous) [%]	average DAT receptor occupancy ([3]; 6 hours after the last dose) [%]	average DAT receptor occupancy ([3]; during the following 6 hours (12 hour scan)) [%]	cytotoxicity [4]
C[C@@H]1NC(C)(C)CO[C@@]1(O)c1cccc(Cl)c1 [Formula (I), (+)-(2S,3S)-2-(3-chlorophenyl)-3,5,5-trimethyl-2-morpholinol]	1100	no inhibition	14±0.38	37±8.0	47±6.8	29±5.3	27±11.3	–
C[C@@H]1NC(C)(C)CO[C@@]1(O)c1cccc(Cl)c1 [Formula (I).HCl, (+)-(2S, 3S)2-(3-chlorophenyl)-3,5,5-trimethyl-2-morpholinol hydrochloride]	–	–	–	–	–	–	–	No cytotoxicity was observed

From patent US20070142378A1, “Method of treating restless legs syndrome and/or periodic limb movement disorder with (2s,3s) 2-(3-chlorophenyl)-3,5,5-trimethyl-2-morpholinol” (Smith Kline Beecham Corporation, priority 2003, published 2007)
